Data from US9375005B2, “5-halogenopyrazole indanyl carboxamides” (BAYER CROPSCIENCE AG, priority 2012, dated 2016).
Marks after values point to notes of the source that are not given here.

Experiments:
Puccinia recondita = assay: In vivo preventive test on Puccinia recondita (brown rust on wheat); conditions: wheat plants sprayed 24 h before contamination, grading 12 days after contamination
Description: Plants, used as controls, are treated with the mixture of acetone/tween/DMSO/water not containing the active material. After 24 hours, the plants are contaminated by spraying the leaves with an aqueous suspension of Puccinia recondita spores (100 000 spores per ml). […] Grading (% of efficacy) is carried out 12 days after the contamination, in comparison with the control plants.

Uromyces appendiculatus = assay: In vivo preventive test on Uromyces appendiculatus (bean rust); conditions: bean plants sprayed 24 h before contamination, grading 11 days after contamination
Description: Bean plants (“Saxa” variety), sown in starter cups on a 50/50 peat soil-pozzolana substrate and grown at 24° C., are treated at the 2-leaf stage (9 cm height) by spraying with the active ingredient prepared as described above. Plants, used as controls, are treated with the mixture of acetone/tween/DMSO/water not containing the active material. After 24 hours, the plants are contaminated by spraying the leaves with an aqueous suspension of Uromyces appendiculatus spores (150 000 spores per ml). […] Grading (% of efficacy) is carried out 11 days after the contamination, in comparison with the control plants.

[1] = Measurement of log P values by HPLC on reversed phase columns (EEC directive 79/831 Annex V.A8); type: physicochemical
[2] = method [a]: LC-MS at pH 2.7, 0.1% formic acid in water / acetonitrile, gradient 10% to 95% acetonitrile
[3] = method [b]: LC-MS at pH 7.8, 0.001 molar ammonium hydrogen carbonate in water, gradient 10% to 95% acetonitrile

SMILES | logP ([1]; method marked [a]) | logP [1, 2] | further results
CC1Cc2c(NC(=O)c3c(C(F)F)nn(C)c3Cl)cccc2C1C (stereo not shown) [Example 62] | 3.87[a] | – | Eff. % (Puccinia recondita; dose 500 ppm): 94%; Eff. % (Uromyces appendiculatus; dose 500 ppm): 100%
CC1CC(C)(C)c2c(Cl)ccc(N)c21 (stereo not shown) [III-a-5] | – | 3.68[a] | –
CCC1(C)CCc2c(N)cccc21 (racemic) [III-a-26] | – | 1.88[a] | –
CCC1Cc2c(Br)cccc2C1(C)C (stereo not shown) [III-b-29] | – | 6.28[a] | –
CON=C1CCc2c(N)cccc21.Cl [III-a-14] | – | 1.26[a] | –
CC1CC2(CC2)c2cccc(Br)c21 (stereo not shown) [III-b-20] | – | 5.28[a] | –
CC1CC2(CCCC2)c2cccc(N)c21 (racemic) [III-a-43] | – | 2.86[a] | –
CC1CCc2c(NC(=O)c3c(C(F)F)nn(C)c3Cl)cccc21 (stereo not shown) [Example 109] | 3.52[a] | – | Eff. % (Puccinia recondita; dose 100 ppm): 94%; Eff. % (Uromyces appendiculatus; dose 100 ppm): 99%
Nc1cccc2c1CC(C1CCCC1)C2 (stereo not shown) [III-a-28] | – | 2.94[a] | –
Cn1nc(C(F)F)c(C(=O)Nc2cccc3c2CCC3C(C)(C)C)c1Cl (stereo not shown) [Example 67] | 4.64[a] | – | Eff. % (Puccinia recondita; dose 500 ppm): 94%; Eff. % (Uromyces appendiculatus; dose 500 ppm): 100%
CCON=C1CC(C)c2c(N)cccc21.Cl (racemic) [III-a-30] | – | 2.26[a] | –
CCCON=C1CC(C)c2c(N)cccc21.Cl (racemic) [III-a-29] | – | 2.78[a] | –
CC1CC(C)(C)c2c(I)ccc(N)c21 (stereo not shown) [III-a-10] | – | 4.1[a] | –
CC(C)C1Cc2c(Br)cccc2C1(C)C (stereo not shown) [III-b-3] | – | 6.7[a] | –
CC1CC2(CCCCC2)c2cccc(N)c21 (stereo not shown) [III-a-44] | – | 3.35[a] | –
CCC1Cc2cccc(N)c2C1 (racemic) [III-a-16] | – | 1.76[a] | –
CC(C)C1Cc2c(NC(=S)c3c(C(F)F)nn(C)c3Br)cccc2C1(C)C (stereo not shown) [Example 102] | 4.87[a] | – | Eff. % (Puccinia recondita; dose 100 ppm): 94%; Eff. % (Uromyces appendiculatus; dose 100 ppm): 100%
Cn1nc(C(F)F)c(C(=O)Nc2cccc3c2C(C)(C)CC3)c1F [Example 100] | 3.31[a] | – | –
CC(C)C1Cc2c(NC(=S)c3c(C(F)F)nn(C)c3Cl)cccc2C1(C)C (stereo not shown) [Example 94, 5-chloro-3-(difluoromethyl)-N-(2-isopropyl-1,1-dimethyl-2,3-dihydro-1H-inden-4-yl)-1-methyl-1H-pyrazole-4-carbothioamide] | – | – | Eff. % (Puccinia recondita; dose 500 ppm): 89%; Eff. % (Uromyces appendiculatus; dose 500 ppm): 99%; logP ([1]; pH 2.7): 4.92[a]
CON=C1c2cccc(NC(=O)c3c(C(F)F)nn(C)c3Cl)c2CC1(C)C (mixture of isomers) [Example 59] | – | – | Eff. % (Puccinia recondita; dose 500 ppm): 86%
CON=C1CC(C)c2c(NC(=O)c3c(C(F)F)nn(C)c3F)cccc21 (stereo not shown) [Example 58] | 2.75[a] | – | Eff. % (Puccinia recondita; dose 500 ppm): 75%; Eff. % (Uromyces appendiculatus; dose 500 ppm): 95%
CC1CC2(CC2)c2cccc(NC(=O)c3c(C(F)F)nn(C)c3Br)c21 (stereo not shown) [Example 76] | 3.83[a] | – | Eff. % (Puccinia recondita; dose 500 ppm): 98%; Eff. % (Uromyces appendiculatus; dose 500 ppm): 100%
Brc1cccc2c1CCC21CC1 [III-b-4] | – | 4.86[a] | –
CC(C)(C)C1CCc2c(N)cccc21 (racemic) [III-a-35] | – | 2.4[a] | –
CCC1Cc2c(N)cccc2C1(C)C (racemic) [III-a-40] | – | 2.47[a] | –
CC1CC(C(C)C)c2cccc(N)c21 (stereo not shown) [III-a-19] | – | 2.86[a] | –

SMILES | logP ([1]; method marked [a]) | logP [1, 2] | further results
CC1c2cccc(NC(=O)c3c(C(F)F)nn(C)c3Br)c2CC1(C)C (stereo not shown) [Example 81] | 4.16[a] | – | Eff. % (Puccinia recondita; dose 500 ppm): 98%; Eff. % (Uromyces appendiculatus; dose 500 ppm): 99%
CON=C1c2cccc(N)c2CC1(C)C.Cl [III-a-32] | – | 2.08[a] | –
Cn1nc(C(F)F)c(C(=O)Nc2cccc3c2CC(C)(C)C3)c1Br [Example 71] | 3.87[a] | – | Eff. % (Puccinia recondita; dose 500 ppm): 98%; Eff. % (Uromyces appendiculatus; dose 500 ppm): 99%
CC1CC(C)(C)c2c(C3CC3)ccc(NC(=O)c3c(C(F)F)nn(C)c3Cl)c21 (stereo not shown) [Example 16] | 4.57[a]; | – | Eff. % (Puccinia recondita; dose 500 ppm): 94%; Eff. % (Uromyces appendiculatus; dose 500 ppm): 95%; logP ([1]; method marked [b]): 4.57[b]
CC(C)CC1CCc2c(Br)cccc21 (stereo not shown) [III-b-16] | – | 6.57[a] | –
CC1c2c(N)cccc2C(C)(C)C1C (stereo not shown) [III-a-34] | – | 2.28[a] | –
CC1CC(C)(C)c2c(Br)ccc(N)c21 (stereo not shown) [III-a-20] | – | 3.85[a]; | logP [1, 3]: 3.95[b]
CCC1(CC)CC(C)c2c(NC(=O)c3c(C(F)F)nn(C)c3F)cccc21 (stereo not shown) [Example 113] | 4.56[a] | – | –
CCON=C1CCc2c(Br)cccc21 (single isomer, unassigned) [III-b-23] | – | 4.9[a] | –
CCON=C1CCc2c(NC(=O)c3c(C(F)F)nn(C)c3F)cccc21 [Example 27] | 3.06[a] | – | Eff. % (Puccinia recondita; dose 500 ppm): 72%
CCCON=C1CCc2c(N)cccc21.Cl [III-a-12] | – | 2.26[a] | –
CCCON=C1CCc2c(Br)cccc21 (single isomer, unassigned) [III-b-22] | – | 5.56[a] | –
CC1CC2(CC2)c2cccc(N)c21 (racemic) [III-a-25] | – | 1.93[a] | –
CC1CC2(CCCC2)c2cccc(NC(=O)c3c(C(F)F)nn(C)c3Cl)c21 (stereo not shown) [Example 111] | 4.64[a] | – | Eff. % (Puccinia recondita; dose 100 ppm): 98%; Eff. % (Uromyces appendiculatus; dose 100 ppm): 100%
CC1CC(C(C)C)c2cccc(N)c21 (stereo not shown) [III-a-18] | – | 2.73[a] | –
Nc1cccc2c1CCC21CC1 [III-a-4] | – | 1.37[a] | –
CON=C1CCc2c(NC(=O)c3c(C(F)F)nn(C)c3Cl)cccc21 [Example 25] | 2.82[a] | – | –
CC(C)CC1CC(C)c2c(NC(=O)c3c(C(F)F)nn(C)c3Cl)cccc21 (stereo not shown) [Example 99] | 5.01[a] | – | Eff. % (Puccinia recondita; dose 100 ppm): 100%; Eff. % (Uromyces appendiculatus; dose 100 ppm): 100%
CC(C)C1Cc2cccc(N)c2C1C (mixture of isomers) [III-a-24] | – | 2.9[a] | –
CC(C)C1Cc2c(N)cccc2C1C (stereo not shown) [III-a-11] | – | 2.34[a] | –
CC1Cc2cccc(NC(=O)c3c(C(F)F)nn(C)c3Cl)c2C1 (stereo not shown) [Example 8] | 3.67[a] | – | Eff. % (Puccinia recondita; dose 500 ppm): 94%; Eff. % (Uromyces appendiculatus; dose 500 ppm): 100%
CCC1(C)CC(C)c2c(NC(=O)c3c(C(F)F)nn(C)c3Br)cccc21 (stereo not shown) [Example 117] | 4.44[a] | – | –
CCCON=C1CCc2c(Br)cccc21 (single isomer, unassigned) [III-b-7] | – | 5.14[a] | –
CC(C)C1Cc2c(NC(=O)c3c(C(F)F)nn(C)c3Br)cccc2C1(C)C (stereo not shown) [Example 68] | 4.92[a] | – | Eff. % (Puccinia recondita; dose 500 ppm): 98%; Eff. % (Uromyces appendiculatus; dose 500 ppm): 100%
CC1CC(C)c2c(NC(=O)c3c(C(F)F)nn(C)c3Cl)cccc21 (stereo not shown) [Example 43] | – | – | Eff. % (Puccinia recondita; dose 500 ppm): 98%; Eff. % (Uromyces appendiculatus; dose 500 ppm): 100%
CC(C)C1Cc2c(N)cccc2C1(C)C (stereo not shown) [III-a-3] | – | 2.8[a] | –

SMILES | logP ([1]; method marked [a]) | logP [1, 2] | further results
CCC1(CC)CC(C)c2c(NC(=O)c3c(C(F)F)nn(C)c3Br)cccc21 (stereo not shown) [Example 114] | 4.82[a] | – | –
CCC1(CC)CC(C)c2c(NC(=O)c3c(C(F)F)nn(C)c3Cl)cccc21 (stereo not shown) [Example 112] | 4.82[a] | – | –
CCCCON=C1CCc2c(Br)cccc21 [III-b-8] | – | 5.71[a] | –
CCON=C1CCc2c(Br)cccc21 (single isomer, unassigned) [III-b-10] | – | 4.49[a] | –
CC1CC2(CC2(Cl)Cl)c2cccc(NC(=O)c3c(C(F)F)nn(C)c3F)c21 (stereo not shown) [Example 1] | 3.68[a] | – | Eff. % (Uromyces appendiculatus; dose 500 ppm): 100%
CCON=C1CCc2c(N)cccc21.Cl [III-a-15] | – | 1.75[a] | –
CC1CC(C)(C)c2c(C3CC3)ccc(N)c21 (stereo not shown) [III-a-8] | – | 2.81[a] | –
CC1Cc2c(N)cccc2C1(C)C (stereo not shown) [III-a-6] | – | 1.95[a] | –
CON=C1CCc2c(NC(=O)c3c(C(F)F)nn(C)c3F)cccc21 [Example 29] | 2.59[a] | – | Eff. % (Puccinia recondita; dose 500 ppm): 98%
CC1CC(CC(C)(C)C)c2cccc(N)c21 (stereo not shown) [III-a-36] | – | 3.83[a] | –
CC1CC(C(C)C)c2cccc(Br)c21 (stereo not shown) [III-b-13] | – | 5.31[a] | –
CCC1(C)CC(C)c2c(NC(=O)c3c(C(F)F)nn(C)c3Cl)cccc21 (stereo not shown) [Example 115] | 4.46[a] | – | –
CON=C1CCc2c(Br)cccc21 [III-b-24] | – | 4.23[a] | –
Nc1cccc2c1CC1(CCCC1)C2 [III-a-7] | – | 2.1[a] | –
CC(C)C1Cc2cccc(N)c2C1 (stereo not shown) [III-a-2] | – | 2.25[a] | –
CCC1(CC)Cc2c(N)cccc2C1C (racemic) [III-a-42] | – | 2.63[a] | –
CON=C1CC(C)c2c(N)cccc21.Cl (racemic) [III-a-31] | – | 1.76[a] | –
CCC1(C)CC(C)c2c(NC(=O)c3c(C(F)F)nn(C)c3F)cccc21 (stereo not shown) [Example 116] | 4.16[a] | – | –
CCCCON=C1CCc2c(N)cccc21.Cl [III-a-13] | – | 2.86[a] | –
Nc1cccc2c1CC(Cc1ccccc1)C2 (stereo not shown) [III-a-21] | – | 2.54[a] | –
CC(C)CC1CCc2c(N)cccc21 (racemic) [III-a-22] | – | 2.64[a] | –
CC(C)CC1CC(C)c2c(N)cccc21 (stereo not shown) [III-a-39] | – | 3.42[a] | –
Cc1ccc(N)c2c1C(C)(C)CC2C (stereo not shown) [III-a-9] | – | 2.16[a]; | logP [1, 3]: 3.52[b]
CC1Cc2c(N)cccc2C1C (stereo not shown) [III-a-33] | – | 1.44[a] | –
CC1CC(C)c2c(N)cccc21 (stereo not shown) [III-a-23] | – | 1.76[a] | –
CC1CC(C)(C)c2c(Br)ccc(NC(=O)c3c(C(F)F)nn(C)c3F)c21 (stereo not shown) [Example 38] | 4.45[a]; | – | Eff. % (Puccinia recondita; dose 500 ppm): 71%; logP ([1]; method marked [b]): 4.35[b]
